Common to all, as to type: cell-based, human
Test [1] relates to rituximab-coated HS-Sultan cells. As to the kind of experiment: Rituximab-mediated ADCC of HS-Sultan cells with PBMCs from FcγR-genotyped donors. Conditions: for baseline ADCC (percent specific lysis): buffer control; for rituximab-mediated ADCC, specific lysis: ratio 100:1, FIG. 5. The protocol: Percent specific lysis is shown for Rituxan-coated HS-Sultan cells incubated with PBMC effector cells at an E:T ratio of 50:1. PBMCs from a patient with the high affinity genotype FcgR2a131 H/H and FcgR3a V/V (solid rectangles) or a patient with the lower affinity genotype FcgR2a131 […] and FcgR3a V/F (open rectangles) were evaluated for ADCC after stimulation with buffer control (baseline) or stimulation with 500 nM ADCC enhancer.
ADCC is mediated through immune effector cells included NK cells that engage the Fc portion of the monoclonal antibody through specific receptors. Patients with single nucleotide polymorphisms in these receptors such as FcRgamma3a position 158 and FcRgamma2a position 131 have a poorer clinical prognosis presumably from poor ADCC due to a lower affinity of the receptor for the monoclonal antibody. […] To determine if this common polymorphism affects the baseline antibody-dependent cellular cytoxicity (ADCC) response and/or response to the ADCC enhancer molecule of the present invention (Compound VTX-2337), PBMCs from donors were genotyped for the two alleles encoding the F and V isoforms, respectively, and tested in vitro. We analyzed rituximab-mediated ADCC using unstimulated PBMC or VTX-2337-stimulated PBMC from 15 donors, including 10 donors with FF or FV phenotype and 5 donors with VV phenotype.
Blood was collected from healthy donors and PBMCs were isolated using a Ficoll gradient. PBMCs were activated by culturing them in the presence of 500 nM VTX-2337 at 37° C. in a humidified 5%CO2 incubator for 48 hours. Activated PBMCs were then incubated with rituximab-coated HS-Sultan cells loaded at a ratio of 100:1 for 4 hours. Lysis was determined by measuring release of the fluorescent dye Calcein AM from the HS-Sultan cells.

Test [2] deals with breast cancer cell line SKBR3. As to the kind of experiment: Herceptin-mediated ADCC of SKBR3 cells by PBMC effector cells. Conditions: PBMCs activated with the ADCC enhancer; FIG. 3. The method, then: (§1) Stimulation of PBMCs: Human Peripheral blood mononuclear cells (PBMCs) were isolated by Ficoll™ density gradient centrifugation and resuspended in RPMI containing 2% heat-inactivated FBS. PBMCs at a concentration of 1 to 3 million cells per mL were incubated with 10-500 nM ADCC enhancer in a humidified CO2 incubator for 18-72 hrs. Activated PBMCs were then used as effector cells in NK and ADCC assays. NK and ADCC Assays: PBMCs activated with the ADCC enhancer were tested for the ability to enhance killing of the NK sensitive target cell line K562 or various tumor cells coated with monoclonal antibodies. Target cells were labeled with the fluorescent dye Calcein AM for 1 hour at 37° C. in a dark humidified CO2 incubator. […] Activated effector cells and labeled target cells were incubated in 96-well tissue culture plates at for 4 hours at 37° C. in a dark humidified CO2 incubator in an assay buffer containing HBSS+Ca/Mg+5% FBS. […] Fluorecence was quantified with a fluorescent microtiter plate reader. The % specific lysis was calculated as (Sample fluorescence-spontaneous fluorescence)*100/(100% fluorescence-spontaneous). 100% fluorescence was determined from wells that contained labeled target cells and detergent such at 0.1% Tween-20 or Triton X-100. Spontaneous fluorescence was determined from wells that contained assay buffer and target cells but not effector cells.

The subject of a further test is K562 target cells. As to the kind of experiment: NK assay: lysis of Calcein AM labeled K562 target cells by PBMCs stimulated with the ADCC enhancer. Conditions: FIG. 1. The method, then:
as §1, with “cells. […]” for “cells.”

Test [3] has as its system breast cancer cell line MDA-MB-231. As to the kind of experiment: Herceptin-mediated ADCC of MDA-MB-231 cells by PBMC effector cells. Conditions: PBMCs activated with the ADCC enhancer; FIG. 3. The method, then:
as §1

Turning to “Rituxan: monoclonal antibody against the protein CD20”, the “baseline ADCC (percent specific lysis)” value in test [1] (patient with high affinity genotype, E:T 50:1, FIG. 4) was “approximately 30%”; in test [1] (patient with lower affinity genotype, E:T 50:1, FIG. 4) it was 10%. Further, the “rituximab-mediated ADCC, specific lysis” value in test [1] (unstimulated PBMC from FF/FV donors) was found to be 20.5±2.5%; in test [1] (unstimulated PBMC from VV donors), 31.7±2.9%.

Turning to `CCCN(CCC)C(=O)C1=Cc2ccc(-c3ccc(C(=O)N4CCCC4)cc3)cc2N=C(N)C1` [ADCC enhancer, {2-amino-8-[4-(pyrrolidinylcarbonyl)phenyl]-(3H-benzo[f]azepin-4-yl)}-N,N-dipropylcarboxamide], the “cell killing of Herceptin coated SKBR3 cells” value in test [2] is recorded as > 80%. The “lysis of K562 target cells” value in the test with K562 target cells (PBMCs stimulated with 167 nM ADCC enhancer) is reported as “up to 45%”; in the test on K562 target cells (PBMCs stimulated with 500 nM ADCC enhancer), “greater than 90%”. The “rituximab-mediated ADCC, specific lysis” value in test [1] (PBMC from high affinity VV donors stimulated with 500 nM VTX-2337 for 48 hours) is reported as 55.5±2.6%; in test [1] (PBMC from low affinity FF/FV donors stimulated with 500 nM VTX-2337 for 48 hours), 40.0±4.1%. In test [1] (patient with low affinity genotype, PBMCs stimulated with 500 nM ADCC enhancer, Rituxan-coated targets, E:T 50:1, FIG. 4), the “ADCC (percent specific lysis)” value was found to be 30%. Also, in test [3], the “cell killing of Herceptin coated MDA-MB-231 cells” value was 40-60%.

The record behind these values is US20170027954A1, “METHODS OF ENHANCING ANTIBODY-DEPENDENT CELLULAR CYTOTOXICITY” (VENTIRX PHARMACEUTICALS, INC., priority 2010, published 2017).
